Results taken from publication PMC6263544, “Second-generation pterocarpanquinones: synthesis and antileishmanial activity” (The Journal of Venomous Animals and Toxins Including …, 2018).
“Also recorded” adds a separate entry of the source.

Tests used:
[1] = system: intracellular amastigotes of L. infantum; experiment: Antiamastigote test, L. infantum in mouse peritoneal macrophages; type: cell-based, Leishmania infantum; details: for IC50: Leishmania infantum, Peritoneal macrophage, intracellular amastigotes in mouse peritoneal macrophages, infection index, Mean ± SEM, read-out: L. infantum Amastigote IC50; for IC50 / activity against L. infantum amastigotes (in words): 72 h; for activity against L. infantum amastigotes (in words): intracellular amastigotes; for L. infantum SI (Selective Index): CC50 in Macrophages/IC50 in intracellular amastigotes
Method: (§1) For the test against intracellular amastigotes of L. amazonensis and L. infantum, resident peritoneal macrophages (swiss mouse) were plated in RPMI (Sigma-Aldrich) at 2 × 10^6/mL (0.4 mL/well) in Lab-Tek eight-chamber slides (Nunc, Roskilde, Denmark) and incubated at 37 °C in 5% CO2 for 1 h. Stationary-phase L. amazonensis and L. infantum promastigotes were added at respective parasite/macrophage ratios of 3:1 and 5:1 for 4 h. After washing three times, pterocarpanquinones 2a-f at various concentrations were added for 72 h. Next, the slides were stained using an Instant Prov hematological dye system (Newprov, Curitiba, Brazil). The number of amastigotes was determined by counting at least 100 macrophages per sample.
(§2) The results were expressed as an infection index (% infected cells×number of amastigotes/total number of macrophages). The 50% inhibitory concentration (IC50) was determined by nonlinear regression analysis in the software GraphPad Prism 5.

[2] = system: L. amazonensis promastigotes; experiment: Antipromastigote test, L. amazonensis; type: cell-based, Leishmania amazonensis; details: for IC50: Leishmania amazonensis, 72 h, resazurin, Mean ± SEM, read-out: L. amazonensis Promastigote IC50
Method: New cultures of promastigotes were obtained from infected Balb/C mice. […] A stock solution of the compounds was prepared at 50 mM in dimethylsulfoxide (Sigma Aldrich). The maximum solvent concentration used in the assays was 0.4% in a final volume per well of 200 μL. The cultures were initiated with 1.0 × 10^6 cells/ml and maintained at 26 °C for 72 h. Inhibition of parasitic growth was determined by cell viability indicator, resazurin [23], with excitation λ = 560 nm and emission λ = 590 nm or the number of parasites was then counted in a Neubauer chamber (experiments with L. braziliensis).

[3] = system: intracellular amastigotes of L. braziliensis; experiment: Antiamastigote test, L. braziliensis in golden hamster macrophages; type: cell-based; details: for L. braziliensis SI (Selective Index): CC50 in Macrophages/IC50 in intracellular amastigotes; for IC50: Leishmania braziliensis, Peritoneal macrophage, intracellular amastigotes in golden hamster peritoneal macrophages, 72 h, infection index, Mean ± SEM, read-out: L. braziliensis Amastigote IC50
Method: Macrophages of golden hamsters were used in assays against intracellular amastigotes of L. braziliensis due to the natural resistance of mice. Resident macrophages were obtained from the peritoneal cells of golden hamsters after a peritoneal injection of 10 mL of Dulbecco’s Modified Eagle’s medium (DMEM) (Sigma-Aldrich). The peritoneal macrophages were plated onto glass coverslips placed within the wells of a 24-well culture plate and incubated at 37 °C in 5% CO2 for 1 h. After removing the nonadherent cells, the monolayers were infected with stationary-phase L. braziliensis promastigotes at a 5:1 parasite/macrophage ratio for 4 h. The infected macrophages were washed and incubated with several pterocarpanquinone concentrations (0-25 μM) for 72 h. The monolayers were then stained with Giemsa, and at least 100 infected macrophages per sample were counted under optical microscopy.
as §2

[4] = Macrophage toxicity test (resazurin); type: cell-based, Swiss mice; details: mouse; peritoneal macrophages of Swiss mice, 72 h, resazurin, Mean ± SEM; read-out: Murine Macrophage CC50
Method: (§3) To evaluate the toxicity of pterocarpanquinones 2a-f, peritoneal macrophages of Swiss mice (2 × 10^6/mL) were incubated with pterocarpanquinones (1.25–100 μM) for 72 h at 37 °C/5% CO2. Viability was evaluated with resazurin assay as described for the antipromastigote test. The 50% cytotoxicity concentration (CC50) was determined by nonlinear regression analysis in the software GraphPad Prism 5.

[5] = system: intracellular amastigotes of L. amazonensis; experiment: Antiamastigote test, L. amazonensis in mouse peritoneal macrophages; type: cell-based, Leishmania amazonensis; details: for L. amazonensis SI (Selective Index): CC50 in Macrophages/IC50 in intracellular amastigotes; for IC50: Leishmania amazonensis, Peritoneal macrophage, intracellular amastigotes in mouse peritoneal macrophages, 72 h, infection index, Mean ± SEM, read-out: L. amazonensis Amastigote IC50
Method: as §1, §2

[6] = system: promastigotes of L. infantum; experiment: Mitochondrial membrane potential (ΔΨm) test (rhodamine 123, flow cytometry); type: cell-based, Leishmania infantum; details: for Δѱm index of variation (IV): Rh123, IV = (MT − MC)/MC, mean ± SD; for effect on ΔΨm (in words): rhodamine 123, flow cytometry
Method: To determine the effect of pterocarpanquinones 2a-f on the ΔΨm, promastigotes of L. infantum (5 × 10^6 cells/mL) were incubated in the presence of 0–5 μM of derivatives at 26 °C. After 4 h, the parasites were incubated for 15 min with 10 μg/mL rhodamine 123 (Rh123) (Sigma-Aldrich). Data acquisition of 10,000 events and analysis were performed using the flow cytometer FACSCalibur (Becton-Dickinson, Rutherford, NJ, USA). Alteration in ΔΨm was quantified using an index of variation (IV) obtained by the eq. IV = (MT − MC)/MC [24], where MT is the median of the fluorescence of Rh123 for treated parasites and MC is the median of the fluorescence of the control parasites. Negative IV values correspond to depolarization of the mitochondrial membrane. The FCCP (Carbonyl cyanide-p-Trifluoromethoxyphenylhydrazone) 20 μM was used as positive control.

[7] = system: L. infantum promastigotes; experiment: Antipromastigote test, L. infantum; type: cell-based, Leishmania infantum; details: for IC50: Leishmania infantum, 72 h, resazurin, Mean ± SEM, read-out: L. infantum Promastigote IC50
Method: Leishmania infantum (MHOM/MA67ITMAP263) parasites were isolated from female BALB/c mice infected and cultured at 26 °C in Schneider’s insect medium supplemented with 20% HIFCS, streptomycin at 100 μg/ml and penicillin at 100 U/ml. New cultures of promastigotes were obtained from infected Balb/C mice.
(§4) Leishmania promastigotes of three species were incubated in 96-well plates (Nunc, Roskilde, Denmark) under the conditions described above in either the absence or presence of different concentrations of pterocarpanquinones 2a-f (0-100 μM). A stock solution of the compounds was prepared at 50 mM in dimethylsulfoxide (Sigma Aldrich). The maximum solvent concentration used in the assays was 0.4% in a final volume per well of 200 μL. The cultures were initiated with 1.0 × 10^6 cells/ml and maintained at 26 °C for 72 h. Inhibition of parasitic growth was determined by cell viability indicator, resazurin [23], with excitation λ = 560 nm and emission λ = 590 nm or the number of parasites was then counted in a Neubauer chamber (experiments with L. braziliensis). The 50% inhibitory concentration (IC50) was determined by nonlinear regression analysis in the software GraphPad Prism 5.

[8] = system: L. braziliensis promastigotes; experiment: Antipromastigote test, L. braziliensis; type: cell-based; details: for IC50: Leishmania braziliensis, 72 h, parasites counted in Neubauer chamber, Mean ± SEM, read-out: L. braziliensis Promastigote IC50
Method: L. braziliensis (MCAN/BR/98/R619) was routinely isolated from hamster lesions and maintained as promastigotes in Schneider’s insect medium containing 20% HIFCS and 100 μg/ml gentamicin (Schering-Plough). New cultures of promastigotes were obtained from an infected hamster.
as §4

[9] = system: promastigotes of L. infantum; experiment: Measurement of reactive oxygen species (H2DCFDA); type: cell-based, Leishmania infantum; details: 1.25–5.0 μM; for ROS production, dependence on concentration: 4 h; for Early ROS production after 4 h of treatment: compared with control
Method: Intracellular ROS levels were measured in treated and untreated cells as described previously. Briefly, 1 × 10^7 promastigotes/mL of L. infantum were incubated in Schneider’s insect medium supplemented with 20% HIFCS at 26 °C with concentrations of pterocarpanquinones 2a-f ranging from 0 to 5 μM in the presence of 20 μM H2DCFDA (Molecular Probes, Eugene, OR, USA). The fluorescence was monitored at 1 h intervals for 4 h using 485 and 530 nm as excitation and emission wavelengths, respectively, using the spectrofluorometer Spectra Max Gemini XPS (Molecular Devices, Silicon Valley, CA, USA). Antimycin A 10 μM was used as positive control.

[10] = system: peritoneal macrophages of Swiss mice; experiment: Macrophage toxicity test (resazurin); type: cell-based
Method: as §3

[11] = 1.25 μM, 4 h, negative = depolarization
[12] = 2.5 μM, 4 h, negative = depolarization

Row | SMILES | IC50 [1] [µM] | IC50 [2] [µM] | L. braziliensis SI (Selective Index) [3] | IC50 [3] [µM] | CC50 at 72 h [4] [µM] | L. amazonensis SI (Selective Index) [5] | IC50 [5] [µM] | Δѱm index of variation (IV) [6, 11] | Δѱm index of variation (IV) [6, 12] | IC50 [7] [µM] | IC50 [8] [µM] | ROS production, dependence on concentration [9] | other results
1 | O=C1C2=C(C(=O)c3ccccc31)[C@H]1CCc3ccccc3[C@H]1O2 (relative stereo) [LQB 187 (2a)] | > 25 | 1.05 ± 0.21 | 5.0 | 9.85 ± 1.37 | 49.3 ± 1.1 | 54.7 | 0.9 ± 0.1 | −0.103 ± 0.16 | −0.368 ± 0.03 | 1.2 ± 0.2 | 23.1 ± 1.63 | – | –
2 | COc1ccc2c(c1)CC[C@@H]1C3=C(O[C@H]21)C(=O)c1ccccc1C3=O (relative stereo) [LQB 474 (2e)] | > 10 | 0.5 ± 0.07 | 1.74 | 8.53 ± 1.12 | 14.9 ± 1.43 | 5.74 | 2.6 ± 0.8 | −0.582 ± 0.1 | −0.701 ± 0.01 | 2.2 ± 0.3 | 12.3 ± 0.45 | only increased ROS production when the parasite was incubated with the highest concentration of 5 μM | effect on ΔΨm (in words) ([6]; 4 h): greater depolarization
3 | COc1ccc2c(c1)[C@H]1OC3=C(C(=O)c4ccccc4C3=O)[C@H]1CC2 (relative stereo) [LQB 475 (2f)] | > 40 | 0.4 ± 0.06 | 5.53 | 9.02 ± 1.64 | – | 23.76 | 2.1 ± 0.4 | −0.668 ± 0.01 | −0.707 ± 0.01 | 1.4 ± 0.7 | 10.5 ± 1.01 | – | effect on ΔΨm (in words) ([6]; 4 h): greater depolarization
4 | N#CC(C#N)=NNc1ccc(OC(F)(F)F)cc1 [FCCP, Carbonyl cyanide-p-Trifluoromethoxyphenylhydrazone, reference compound] | – | – | – | – | – | – | – | – | – | – | – | – | Δѱm index of variation (IV) ([6]; 20 μM (positive control)): −0.727 ± 0.01
5 | O=C1C2=C(C(=O)c3ccccc31)[C@H]1COc3cc4c(cc3[C@H]1O2)OCO4 [LQB 168 (2d)] | > 50 | 1.37 ± 0.04 | 11.03 | 7.04 ± 2.29 | 77.7 ± 1.1 | 172.6 | 0.45 ± 0.06 | −0.369 ± 0.08 | −0.194 ± 0.18 | 2 ± 0.4 | 28.2 ± 1.61 | – | activity against L. infantum amastigotes (in words) [1]: no significant activity; fold higher CC50 than LQB-118 (less cytotoxic) ([10]; peritoneal macrophages, CC50 77.7 μM vs 18.46 μM): 4.2 fold
6 | O=C1C2=C(C(=O)c3ccccc31)[C@H]1COc3ccccc3[C@H]1O2 [LQB 182 (2b)] | 3.6 ± 0.9 | 1.08 ± 0.2 | 2.15 | 7.84 ± 2.46 | 16.9 ± 1.2 | 19.8 | 0.85 ± 0.02 | −0.397 ± 0.07 | −0.402 ± 0.04 | 1 ± 0.3 | 11 ± 1.25 | increased ROS generation dependent on compound concentration | L. infantum SI (Selective Index) [1]: 4.69; activity against L. infantum amastigotes (in words) [1]: the only one active; improvement of activity, 2b in comparison to 1 ([2]; promastigotes of L. amazonensis): about 1.6 times; improvement of activity, 2b in comparison to 1 ([5]; amastigotes of L. amazonensis): about 1.6 times; Early ROS production after 4 h of treatment ([9]; listed as 2b): induction of increased ROS production; improvement of activity, 2b in comparison to 1 ([7]; promastigotes of L. infantum): ~4 times; decrease in antileishmanial activity, 2b in comparison to 1 ([8]; promastigotes of L. braziliensis): 3.2 times; activity relative to deoxy derivative 2a ([8]; promastigotes of L. braziliensis, listed as 2b): approximately twice as active; also recorded: approximately two times more active
7 | O=C1C2=C(C(=O)c3ccccc31)[C@H]1COc3ccc(Cl)cc3[C@H]1O2 [LQB 236 (2c)] | > 25 | 1.15 ± 0.18 | 5.26 | 8.34 ± 1.47 | 43.9 ± 0.6 | 73.16 | 0.6 ± 0.13 | −0.360 ± 0.16 | −0.258 ± 0.17 | 1.8 ± 0.3 | 17.9 ± 1.12 | only increased ROS production when the parasite was incubated with the highest concentration of 5 μM | increased cytotoxicity when compared to 2b ([10]; macrophages): 2.6 times; Early ROS production after 4 h of treatment ([9]; listed as 2c): induction of increased ROS production
8 | N=C(N)c1ccc(OCCCCCOc2ccc(C(=N)N)cc2)cc1 [Pentamidine, reference compound] | 0.4 ± 0.2 | 4.8 ± 0.09 | 1.1 | 7.7 ± 2.4 | 8.5 ± 1.25 | 4.47 | 1.9 ± 0.1 | – | – | 5.7 ± 0.12 | 13 ± 0.04 | – | L. infantum SI (Selective Index) [1]: 21.25
